From US20220073536A1 (Rigel Pharmaceuticals, Inc., priority 2003, published 2022)
Counter-ions that a name gives are not always drawn. Like-named read-outs stand apart in the source and are kept apart here. Blank lines part the entries; values can stand above or below the compound they belong to.

Tested on: cultured human mast cells (CHMC)
Test: CHMC low cell density IgE activation: tryptase assay
Format: cell-based
Settings: low cell density CHMC, IgE activation, tryptase release
Method in brief: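 Low-density CHMC, 1000-1500 cells/well in MT; 1 hr 37 °C; anti-IgE challenge 30 min 37 °C; supernatant tryptase via fluorogenic substrate, 30 min RT.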

[1] = Homo sapiens, Mast cell, 8 pt, read-out: LD Tryptase, CHMC, IgE, 8 pt
[2] = 3 pt, read-out: LD Tryptase, CHMC, IgE, 3 pt
[3] = 8 pt, read-out: LD Tryptase, CHMC, IgE, 8 pt
[4] = Homo sapiens, Mast cell, 3 pt, read-out: LD Tryptase, CHMC, IgE, 3 pt

SMILES: CC(=O)NCCCn1ncc2cc(Nc3ncc(F)c(Nc4ccc5c(n4)NC(=O)C(C)(C)O5)n3)ccc21 [Compound 822, N2-[1-[3-(N-Acetylamino)propyl]indazol-5-yl]-N4-(2,2-dimethyl-3-oxo-4H-5-pyrid[1,4]oxazin-6-yl)-5-fluoro-2,4-pyrimidinediamine]
- IC50 [1]: < 10 µM

SMILES: Cn1nc(N)c2cc(Nc3ncc(F)c(Nc4ccc5c(n4)NC(=O)C(C)(C)O5)n3)ccc21 [Compound 837, N2-(3-Amino-1-methylindazol-5-yl)-N4-(2,2-dimethyl-3-oxo-4H-5-pyrid[1,4]oxazin-6-yl)-5-fluoro-2,4-pyrimidinediamine]
- IC50 [2]: < 10 µM
- IC50 [3]: < 10 µM

SMILES: COCCCn1ncc2ccc(Nc3ncc(F)c(Nc4ccc5c(n4)NC(=O)C(C)(C)O5)n3)cc21 [Compound 839, N4-(2,2-Dimethyl-3-oxo-4H-5-pyrid[1,4]oxazin-6-yl)-5-fluoro-N2-[1-(3-methoxypropyl)indazol-6-yl]-2,4-pyrimidinediamine]
- IC50 [2]: < 10 µM
- IC50 [3]: < 10 µM

SMILES: COc1ccc(Nc2nc(Nc3ccc4c(cnn4CCCNS(=O)(=O)C(F)(F)F)c3)ncc2F)cc1Cl [Compound 840, N4-(3-Chloro-4-methoxyphenyl)-5-fluoro-N2-[1-[3-(N-trifluoromethylsulfonylamino)propyl]indazol-5-yl]-2,4-pyrimidinediamine]
- IC50 [1]: < 10 µM

SMILES: O=S(=O)(NCCCn1ncc2cc(Nc3ncc(F)c(Nc4ccc(Cl)c(Cl)c4)n3)ccc21)C(F)(F)F [Compound 841, N4-(3,4-Dichlorophenyl)-5-fluoro-N2-[1-[3-(N-trifluoromethylsulfonylamino)propyl]indazol-5-yl]-2,4-pyrimidinediamine]
- IC50 [1]: < 10 µM

SMILES: CC1(C)Oc2ccc(Nc3nc(Nc4ccc5c(cnn5CCCNS(=O)(=O)C(F)(F)F)c4)ncc3F)nc2NC1=O [Compound 844, N4-(2,2-Dimethyl-3-oxo-4H-5-pyrid[1,4]oxazin-6-yl)-5-fluoro-N2-[1-[3-(N-trifluoromethylsulfonylamino)propyl]indazol-5-yl]-2,4-pyrimidinediamine]
- IC50 [3]: > 10 µM

SMILES: CCOP(=O)(NCCCn1ncc2cc(Nc3ncc(F)c(Nc4ccc(OC)c(Cl)c4)n3)ccc21)OCC [Compound 847, N4-(3-Chloro-4-methoxyphenyl)-N2-[1-(3-(diethylphosphonamido)propyl]indazol-5-yl]-5-fluoro-2,4-pyrimidinediamine]
- IC50 [3]: < 10 µM

SMILES: COc1ccc(Nc2nc(Nc3ccc4c(cnn4CCCNC(=O)C(C)(C)C)c3)ncc2F)cc1Cl [Compound 848, N4-(3-Chloro-4-methoxyphenyl)-5-fluoro-N2-[1-(3-pivalamidopropyl)indazol-5-yl]-2,4-pyrimidinediamine]
- IC50 [1]: < 10 µM

SMILES: CC(C)(C)C(=O)NCCCn1ncc2cc(Nc3ncc(F)c(Nc4ccc(Cl)c(Cl)c4)n3)ccc21 [Compound 849, N4-(3,4-Dichlorophenyl)-5-fluoro-N2-[1-(3-pivalamidopropyl)indazol-5-yl]-2,4-pyrimidinediamine]
- IC50 [1]: < 10 µM

SMILES: CC(C)(C)C(=O)NCCCn1ncc2cc(Nc3ncc(F)c(Nc4ccc5c(n4)NC(=O)C(C)(C)O5)n3)ccc21 [Compound 852, N4-(2,2-Dimethyl-3-oxo-4H-5-pyrido[1,4]oxazin-6-yl)-5-fluoro-N2-[1-(3-pivalamidopropyl)indazol-5-yl]-2,4-pyrimidinediamine]
- IC50 [3]: < 10 µM

SMILES: CC1(C)Oc2ccc(Nc3nc(Nc4ccc5c(cnn5CCCN5C(=O)CCC5=O)c4)ncc3F)nc2NC1=O [Compound 857, N4-(2,2-Dimethyl-3-oxo-4H-5-pyrid[1,4]oxazin-6-yl)-5-fluoro-N2-[1-[3-(N-succinimidopropyl)]indazol-5-yl]-2,4-pyrimidinediamine]
- IC50 [2]: < 10 µM
- IC50 [3]: < 10 µM

SMILES: COc1ccc(Nc2nc(Nc3ccc4c(cnn4CCCN4C(=O)CCCC4=O)c3)ncc2F)cc1Cl [Compound 858, N4-(3-Chloro-4-methoxyphenyl)-N2-[1-[3-(2,6-dioxopiperidino]propyl)indazol-5-yl]-5-fluoro-2,4-pyrimidinediamine]
- IC50 [4]: < 10 µM
- IC50 [1]: < 10 µM

SMILES: O=C1CCCC(=O)N1CCCn1ncc2cc(Nc3ncc(F)c(Nc4ccc(Cl)c(Cl)c4)n3)ccc21 [Compound 859, N4-(3,4-Dichlorophenyl)-N2-[1-[3-(2,6-dioxopiperidino)propyl]indazol-5-yl]-5-fluoro-2,4-pyrimidinediamine]
- IC50 [4]: < 10 µM
- IC50 [1]: < 10 µM

Now from value to compound:

- IC50 [1]: < 10 µM
SMILES: CC(=O)NCCCn1ncc2cc(Nc3ncc(F)c(Nc4ccc(Cl)c(Cl)c4)n3)ccc21 [Compound 820, N2-[1-[3-(N-Acetylamino)propyl]indazol-5-yl]-N4-(3,4-dichlorophenyl)-5-fluoro-2,4-pyrimidinediamine]

- IC50 [1]: < 10 µM
SMILES: CC(=O)NCCCn1ncc2cc(Nc3ncc(F)c(Nc4ccc5c(c4)NC(=O)C(C)(C)O5)n3)ccc21 [Compound 821, N2-[1-[3-(N-Acetylamino)propyl]indazol-5-yl]-N4-(2,2-dimethyl-3-oxo-4H-benz[1,4]oxazin-6-yl)-5-fluoro-2,4-pyrimidinediamine]

- IC50 [1]: < 10 µM
SMILES: COc1ccc(Nc2nc(Nc3ccc4c(cnn4CCCN)c3)ncc2F)cc1Cl [Compound 823, N2-[1-(3-Aminopropyl)indazol-5-yl]-N4-(3-chloro-4-methoxyphenyl)-5-fluoro-2,4-pyrimidinediamine]

- IC50 [1]: < 10 µM
SMILES: NCCCn1ncc2cc(Nc3ncc(F)c(Nc4ccc(Cl)c(Cl)c4)n3)ccc21 [Compound 824, N2-[1-(3-Aminopropyl)indazol-5-yl]-N4-(3,4-dichlorophenyl)-5-fluoro-2,4-pyrimidinediamine]

- IC50 [1]: < 10 µM
SMILES: CC1(C)Oc2ccc(Nc3nc(Nc4ccc5c(cnn5CCCN)c4)ncc3F)cc2NC1=O [Compound 825, N2-[1-(3-Aminopropyl)indazol-5-yl]-N4-(2,2-dimethyl-3-oxo-4H-benz[1,4]oxazin-6-yl)-5-fluoro-2,4-pyrimidinediamine]

- IC50 [1]: < 10 µM
SMILES: C[C@@H]1Oc2ccc(Nc3nc(Nc4ccc5c(cnn5CCCN)c4)ncc3F)cc2NC1=O [Compound 826, (S)-N2-[1-(3-Aminopropyl)indazol-5-yl]-5-fluoro-N4-(2-methyl-3-oxo-2H,4H-benz[1,4]oxazin-6-yl)-2,4-pyrimidinediamine]

- IC50 [1]: < 10 µM
SMILES: COc1ccc(Nc2nc(Nc3ccc4c(cnn4CCCO)c3)ncc2F)cc1Cl [Compound 828, N4-(3-Chloro-4-methoxyphenyl)-5-fluoro-N2-[1-(3-hydroxypropyl)indazol-5-yl]-2,4-pyrimidinediamine Bis p-Toluenesulfonic Acid Salt]

- IC50 [2]: < 10 µM
- IC50 [3]: < 10 µM
SMILES: CC1(C)Oc2ccc(Nc3nc(Nc4ccc5c(cnn5CCCO)c4)ncc3F)nc2NC1=O [Compound 838, N4-(2,2-Dimethyl-3-oxo-4H-5-pyrid[1,4]oxazin-6-yl)-5-fluoro-N2-[1-(3-hydroxypropyl)indazol-5-yl]-2,4-pyrimidinediamine]

- IC50 [1]: < 10 µM
SMILES: CC1(C)Oc2ccc(Nc3nc(Nc4ccc5c(cnn5CCCNS(=O)(=O)C(F)(F)F)c4)ncc3F)cc2NC1=O [Compound 842, N4-(2,2-Dimethyl-3-oxo-4H-benz[1,4]oxazin-6-yl)-5-fluoro-N2-[1-[3-(N-trifluoromethylsulfonylamino)propyl]indazol-5-yl]-2,4-pyrimidinediamine]

- IC50 [1]: < 10 µM
SMILES: C[C@@H]1Oc2ccc(Nc3nc(Nc4ccc5c(cnn5CCCNS(=O)(=O)C(F)(F)F)c4)ncc3F)cc2NC1=O [Compound 843, (S)-5-Fluoro-N4-(2-methyl-3-oxo-2H,4H-benz[1,4]oxazin-6-yl)-N2-[1-[3-(N-trifluoromethylsulfonylamino)propyl]indazol-5-yl]-2,4-pyrimidinediamine]

- IC50 [1]: < 10 µM
SMILES: CC(C)(C)C(=O)NCCCn1ncc2cc(Nc3ncc(F)c(Nc4ccc5c(c4)NC(=O)C(C)(C)O5)n3)ccc21 [Compound 850, N4-(2,2-Dimethyl-3-oxo-4H-benz[1,4]oxazin-6-yl)-5-fluoro-N2-[1-(3-pivalamidopropyl)indazol-5-yl]-2,4-pyrimidinediamine]

- IC50 [1]: < 10 µM
SMILES: C[C@@H]1Oc2ccc(Nc3nc(Nc4ccc5c(cnn5CCCNC(=O)C(C)(C)C)c4)ncc3F)cc2NC1=O [Compound 851, 5-Fluoro-(S)-N4-(2-methyl-3-oxo-4H-benz[1,4]oxazin-6-yl)-N2-[1-(3-pivalamidopropyl)indazol-5-yl]-2,4-pyrimidinediamine]

- IC50 [2]: < 10 µM
- IC50 [3]: < 10 µM
SMILES: COc1ccc(Nc2nc(Nc3ccc4c(cnn4CCCN4C(=O)CCC4=O)c3)ncc2F)cc1Cl [Compound 853, N4-(3-Chloro-4-methoxyphenyl)-5-fluoro-N2-[1-[3-(N-succinimidopropyl)]indazol-5-yl]-2,4-pyrimidinediamine]

- IC50 [2]: < 10 µM
- IC50 [3]: > 10 µM
SMILES: O=C1CCC(=O)N1CCCn1ncc2cc(Nc3ncc(F)c(Nc4ccc(Cl)c(Cl)c4)n3)ccc21 [Compound 854, N4-(3,4-Dichlorophenyl)-5-fluoro-N2-[1-[3-(N-succinimidopropyl)]indazol-5-yl]-2,4-pyrimidinediamine]

- IC50 [2]: < 10 µM
- IC50 [3]: < 10 µM
SMILES: CC1(C)Oc2ccc(Nc3nc(Nc4ccc5c(cnn5CCCN5C(=O)CCC5=O)c4)ncc3F)cc2NC1=O [Compound 855, N4-(2,2-Dimethyl-3-oxo-4H-benz[1,4]oxazin-6-yl)-5-fluoro-N2-[1-[3-(N-succinimidopropyl)]indazol-5-yl]-2,4-pyrimidinediamine]

- IC50 [2]: < 10 µM
- IC50 [3]: < 10 µM
SMILES: C[C@@H]1Oc2ccc(Nc3nc(Nc4ccc5c(cnn5CCCN5C(=O)CCC5=O)c4)ncc3F)cc2NC1=O [Compound 856, (S)-5-Fluoro-N4-(2-methyl-3-oxo-2H,4H-benz[1,4]oxazin-6-yl)-N2-[1-[3-(N-succinimidopropyl)]indazol-5-yl]-2,4-pyrimidinediamine]
